This test addresses Tyrosine-protein kinase transforming protein Src (Rous sarcoma virus). Briefly: Inhibition of [125I]phosphopeptide binding to Src SH2 domain.

Here are results for 2 compounds from ChEMBL document CHEMBL1130428, “Design, synthesis, and cocrystal structure of a nonpeptide Src SH2 domain ligand” (J Med Chem, 1997).

Broadly, the IC50 is the concentration needed to halve the response being measured. A lower IC50 goes with inhibition by little substance.

For `CC[C@H](C)[C@H](NC(=O)[C@H](CCC(=O)O)NC(=O)[C@H](CCC(=O)O)NC(=O)[C@@H](CC(=O)O)Cc1ccc(OP(=O)(O)O)cc1)C(=O)N[C@@H](CCC(=O)O)C(=O)O`, the IC50 is 0.4 µM.

Consider `CN(CCCC1CCCCC1)C(=O)[C@H](CCC(=O)O)NC(=O)NCc1ccc(OP(=O)(O)O)cc1`, for which the IC50 is 12 µM.
